Experimental data reported in patent US20020187944A1, “Inhibition of human immunodeficiency virus reverse transcriptase” (priority 2001, published 2002).

What was measured:
[1] = biological target: T1, DNA-dependent DNA polymerase (DNA pol I, GibcoBRL) (Escherichia coli, UniProt P00582); assay: DNA-dependent DNA polymerase reaction, radiolabel incorporation; assay type: biochemical, E. coli
T1 construct: purchased GibcoBRL
Procedure: (§1) Inhibition of HIV reverse transcriptase (RT) was studied in a one milliliter reaction mixture containing 12.5 μmol Tris-HCl (pH 8.3), 3 μmol MgCl2, 10 μmol KCl, 2.5 μmol dithiothreitol, 0.04 μmol of each dNTP, 1 μCi ^3H-TTP (50 Ci/mmol), 10 μl of DMSO containing 0-320 μg/ml of 9-O-methyl oxime erythromycin A (EMO), and 0.01 μg HIV-1 reverse transcriptase. DNA template (0.01 μg) from calf thymus was used as the substrate in the reaction. After 60 minutes incubation at 37° C., samples from the reaction were pipetted on 3 MM filter paper discs (Whatman), which were washed 5 times in cold trichloroacetic acid (5%) containing sodium pyrophosphate (0.01 M). After drying, the discs were counted in a toluene scintillation solution using a Beckman scintillation spectrometer. Reactions with DNA-dependent DNA polymerase (DNA pol I, GibcoBRL) or DNA-dependent RNA polymerase from E. coli were carried out as described above, except that ^3H-UTP replaced ^3H-TTP where appropriate.

[2] = biological target: T2, HIV-1 reverse transcriptase (Human immunodeficiency virus type 1 group M subtype B, UniProt P04585); assay: Inhibition of HIV reverse transcriptase, 3H-TTP incorporation on calf thymus DNA template; assay type: biochemical; settings: for HIV RT Radioactivity: 60 minutes at 37° C.
T2 construct: 0.01 μg HIV-1 reverse transcriptase
Procedure: as §1

[3] = biological target: DNA-dependent RNA polymerase from E. coli (Escherichia coli, UniProt P0A8T7+P0A8V2); assay: DNA-dependent RNA polymerase reaction, 3H-UTP incorporation; assay type: biochemical
Procedure: as §1

[4] = gastric acid; stated without a test; cited from earlier work

T1 sequence (P00582 whole entry): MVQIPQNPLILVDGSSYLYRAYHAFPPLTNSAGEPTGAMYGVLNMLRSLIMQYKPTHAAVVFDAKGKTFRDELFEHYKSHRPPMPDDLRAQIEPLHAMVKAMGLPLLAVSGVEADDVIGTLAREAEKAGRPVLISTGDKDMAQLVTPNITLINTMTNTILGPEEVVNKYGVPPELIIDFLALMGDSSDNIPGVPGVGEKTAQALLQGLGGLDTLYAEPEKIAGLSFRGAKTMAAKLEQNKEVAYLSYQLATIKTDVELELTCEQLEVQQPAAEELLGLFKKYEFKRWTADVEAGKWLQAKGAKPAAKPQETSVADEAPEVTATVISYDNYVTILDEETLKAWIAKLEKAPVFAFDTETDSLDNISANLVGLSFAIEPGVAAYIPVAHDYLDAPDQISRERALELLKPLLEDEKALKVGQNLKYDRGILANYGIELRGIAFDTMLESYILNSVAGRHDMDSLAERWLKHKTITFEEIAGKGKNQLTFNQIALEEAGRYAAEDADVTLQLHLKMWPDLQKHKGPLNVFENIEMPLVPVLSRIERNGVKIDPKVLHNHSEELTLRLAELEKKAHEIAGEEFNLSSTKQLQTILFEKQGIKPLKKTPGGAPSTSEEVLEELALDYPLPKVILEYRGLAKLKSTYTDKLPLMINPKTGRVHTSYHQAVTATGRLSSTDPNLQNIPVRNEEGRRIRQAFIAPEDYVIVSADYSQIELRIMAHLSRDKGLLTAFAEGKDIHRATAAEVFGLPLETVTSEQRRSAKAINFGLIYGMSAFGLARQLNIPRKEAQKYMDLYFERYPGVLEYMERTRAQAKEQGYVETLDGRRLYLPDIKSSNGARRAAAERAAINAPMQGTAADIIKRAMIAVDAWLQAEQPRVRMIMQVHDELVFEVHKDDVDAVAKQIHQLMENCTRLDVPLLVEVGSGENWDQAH
Chain of DNA-dependent RNA polymerase from E. coli (P0A8V2 whole entry): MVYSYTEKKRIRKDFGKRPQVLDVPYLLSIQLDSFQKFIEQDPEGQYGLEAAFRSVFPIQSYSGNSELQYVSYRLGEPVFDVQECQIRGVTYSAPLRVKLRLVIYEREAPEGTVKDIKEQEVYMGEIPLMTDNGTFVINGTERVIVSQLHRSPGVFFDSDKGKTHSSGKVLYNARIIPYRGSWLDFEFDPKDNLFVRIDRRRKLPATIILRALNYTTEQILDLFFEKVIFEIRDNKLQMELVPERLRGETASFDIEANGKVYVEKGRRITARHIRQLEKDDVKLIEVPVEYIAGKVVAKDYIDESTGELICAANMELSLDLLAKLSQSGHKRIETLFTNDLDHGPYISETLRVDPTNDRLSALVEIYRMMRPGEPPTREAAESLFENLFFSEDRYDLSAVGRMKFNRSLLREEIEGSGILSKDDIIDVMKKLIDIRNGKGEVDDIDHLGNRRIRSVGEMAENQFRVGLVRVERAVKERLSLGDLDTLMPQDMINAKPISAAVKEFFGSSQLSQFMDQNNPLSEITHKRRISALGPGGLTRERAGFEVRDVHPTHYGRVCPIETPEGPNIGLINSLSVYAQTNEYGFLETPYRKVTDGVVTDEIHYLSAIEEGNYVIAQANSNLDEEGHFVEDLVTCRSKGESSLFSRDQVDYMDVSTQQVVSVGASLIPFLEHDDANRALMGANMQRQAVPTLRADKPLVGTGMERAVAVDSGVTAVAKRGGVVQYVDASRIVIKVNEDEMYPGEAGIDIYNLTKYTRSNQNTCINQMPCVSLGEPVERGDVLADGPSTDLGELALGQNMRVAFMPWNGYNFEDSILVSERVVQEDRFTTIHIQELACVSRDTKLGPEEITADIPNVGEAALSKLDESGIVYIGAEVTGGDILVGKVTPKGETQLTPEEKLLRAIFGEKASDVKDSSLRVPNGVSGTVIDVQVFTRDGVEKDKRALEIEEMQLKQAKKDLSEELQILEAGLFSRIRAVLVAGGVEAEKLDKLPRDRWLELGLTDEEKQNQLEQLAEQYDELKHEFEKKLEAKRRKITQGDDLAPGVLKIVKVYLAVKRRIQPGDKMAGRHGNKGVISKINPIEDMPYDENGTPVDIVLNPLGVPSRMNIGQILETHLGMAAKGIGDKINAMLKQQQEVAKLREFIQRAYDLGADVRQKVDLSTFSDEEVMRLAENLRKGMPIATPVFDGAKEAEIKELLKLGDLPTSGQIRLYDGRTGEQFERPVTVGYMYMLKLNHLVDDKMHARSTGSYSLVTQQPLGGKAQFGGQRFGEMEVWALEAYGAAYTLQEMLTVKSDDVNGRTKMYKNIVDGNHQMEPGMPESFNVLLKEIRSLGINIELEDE
Chain of DNA-dependent RNA polymerase from E. coli (P0A7Z4 whole entry, further chain): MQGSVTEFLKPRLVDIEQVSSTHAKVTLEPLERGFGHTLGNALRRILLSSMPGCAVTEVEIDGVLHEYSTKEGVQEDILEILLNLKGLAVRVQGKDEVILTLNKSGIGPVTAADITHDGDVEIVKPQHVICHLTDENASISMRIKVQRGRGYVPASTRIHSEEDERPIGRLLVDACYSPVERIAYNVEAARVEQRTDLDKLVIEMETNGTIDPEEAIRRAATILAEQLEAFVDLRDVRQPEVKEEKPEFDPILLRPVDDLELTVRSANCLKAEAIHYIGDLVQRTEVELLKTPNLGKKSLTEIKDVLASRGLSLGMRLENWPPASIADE
Chain of DNA-dependent RNA polymerase from E. coli (P0A800 whole entry, further chain): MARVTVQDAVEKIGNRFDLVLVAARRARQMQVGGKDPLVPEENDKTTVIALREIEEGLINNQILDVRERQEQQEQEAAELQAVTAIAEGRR
Chain of DNA-dependent RNA polymerase from E. coli (P0A8T7 whole entry): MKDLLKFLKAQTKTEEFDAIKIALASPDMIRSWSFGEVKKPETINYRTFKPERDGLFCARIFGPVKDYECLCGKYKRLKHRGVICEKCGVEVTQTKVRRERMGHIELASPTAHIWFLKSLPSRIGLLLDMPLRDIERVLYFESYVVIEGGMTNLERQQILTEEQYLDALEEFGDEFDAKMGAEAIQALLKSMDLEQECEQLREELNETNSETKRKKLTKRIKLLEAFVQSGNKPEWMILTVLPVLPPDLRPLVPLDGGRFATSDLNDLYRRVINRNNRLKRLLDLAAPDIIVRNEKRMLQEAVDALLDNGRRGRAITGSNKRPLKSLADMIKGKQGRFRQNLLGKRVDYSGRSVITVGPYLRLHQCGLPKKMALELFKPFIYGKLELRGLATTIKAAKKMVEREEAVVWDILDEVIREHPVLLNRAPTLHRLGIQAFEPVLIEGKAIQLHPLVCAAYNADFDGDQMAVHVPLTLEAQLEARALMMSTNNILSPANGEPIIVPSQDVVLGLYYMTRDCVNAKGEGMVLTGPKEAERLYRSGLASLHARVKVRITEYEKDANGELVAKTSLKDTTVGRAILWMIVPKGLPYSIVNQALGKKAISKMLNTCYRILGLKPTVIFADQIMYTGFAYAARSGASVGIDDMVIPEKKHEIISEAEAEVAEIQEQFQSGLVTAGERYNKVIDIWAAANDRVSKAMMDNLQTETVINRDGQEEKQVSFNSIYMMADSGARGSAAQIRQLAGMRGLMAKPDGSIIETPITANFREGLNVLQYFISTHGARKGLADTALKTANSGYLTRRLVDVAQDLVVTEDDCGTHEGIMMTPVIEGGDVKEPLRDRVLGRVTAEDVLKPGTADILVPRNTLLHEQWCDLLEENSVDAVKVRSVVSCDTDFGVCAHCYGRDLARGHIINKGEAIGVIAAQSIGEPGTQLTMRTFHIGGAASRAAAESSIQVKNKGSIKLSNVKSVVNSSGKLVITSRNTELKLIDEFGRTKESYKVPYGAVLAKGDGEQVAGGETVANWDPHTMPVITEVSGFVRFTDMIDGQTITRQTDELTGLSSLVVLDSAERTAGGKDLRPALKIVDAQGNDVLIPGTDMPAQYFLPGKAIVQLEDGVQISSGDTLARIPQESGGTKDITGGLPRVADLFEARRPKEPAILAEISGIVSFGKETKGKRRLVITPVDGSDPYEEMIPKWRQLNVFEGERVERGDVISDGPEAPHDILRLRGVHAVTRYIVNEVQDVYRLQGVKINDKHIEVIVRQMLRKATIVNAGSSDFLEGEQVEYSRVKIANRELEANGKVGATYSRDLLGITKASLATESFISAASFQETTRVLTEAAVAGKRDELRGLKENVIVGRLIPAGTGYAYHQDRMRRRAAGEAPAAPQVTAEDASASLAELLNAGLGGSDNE

CC[C@H]1OC(=O)[C@H](C)[C@@H](O[C@H]2C[C@@](C)(OC)[C@@H](O)[C@H](C)O2)[C@H](C)[C@@H](O[C@@H]2O[C@H](C)C[C@H](N(C)C)[C@H]2O)[C@](C)(O)C[C@@H](C)/C(=N\OC)[C@H](C)[C@@H](O)[C@]1(C)O [EMO, 9-O-methyl oxime erythromycin A]
DNA-dependent DNA polymerase % Inhibition ([1]; [EMO] 80 μg/ml): −2%
DNA-dependent DNA polymerase Radioactivity ([1]; [EMO] 80 μg/ml): 12,800 cpm
DNA-dependent DNA polymerase % Inhibition ([1]; [EMO] 160 μg/ml): 1%
DNA-dependent DNA polymerase Radioactivity ([1]; [EMO] 160 μg/ml): 12,400 cpm
DNA-dependent DNA polymerase % Inhibition ([1]; [EMO] 320 μg/ml): 0%
DNA-dependent DNA polymerase Radioactivity ([1]; [EMO] 320 μg/ml): 12,600 cpm
HIV RT % Inhibition ([2]; [EMO] 20 μg/ml): 0.8%
HIV RT Radioactivity ([2]; [EMO] 20 μg/ml): 8490 cpm
HIV RT % Inhibition ([2]; [EMO] 40 μg/ml): −0.5%
HIV RT Radioactivity ([2]; [EMO] 40 μg/ml): 8600 cpm
HIV RT % Inhibition ([2]; [EMO] 80 μg/ml): 20%
HIV RT Radioactivity ([2]; [EMO] 80 μg/ml): 6850 cpm
HIV RT % Inhibition ([2]; [EMO] 160 μg/ml): 81%
HIV RT Radioactivity ([2]; [EMO] 160 μg/ml): 1625 cpm
HIV RT % Inhibition ([2]; [EMO] 320 μg/ml): 85%
HIV RT Radioactivity ([2]; [EMO] 320 μg/ml): 1287 cpm
DNA-dependent RNA polymerase % Inhibition ([3]; [EMO] 80 μg/ml): −0.2%
DNA-dependent RNA polymerase Radioactivity ([3]; [EMO] 80 μg/ml): 33,000 cpm
DNA-dependent RNA polymerase % Inhibition ([3]; [EMO] 160 μg/ml): −1%
DNA-dependent RNA polymerase Radioactivity ([3]; [EMO] 160 μg/ml): 32,800 cpm
DNA-dependent RNA polymerase % Inhibition ([3]; [EMO] 320 μg/ml): 0.5%
DNA-dependent RNA polymerase Radioactivity ([3]; [EMO] 320 μg/ml): 32,400 cpm

CC[C@H]1OC(=O)[C@H](C)[C@@H](O[C@H]2C[C@@](C)(OC)[C@@H](O)[C@H](C)O2)[C@H](C)[C@@H](O[C@@H]2O[C@H](C)C[C@H](N(C)C)[C@H]2O)[C@](C)(O)C[C@@H](C)C(=O)[C@H](C)[C@@H](O)[C@]1(C)O [Erythromycin A, erythromycin A]
acid stability [4]: acid labile
